The target in assay [1] is T1, NAD-dependent protein deacetylase sirtuin-2 (Homo sapiens) (UniProt Q8IXJ6).
T1 sequence (whole entry): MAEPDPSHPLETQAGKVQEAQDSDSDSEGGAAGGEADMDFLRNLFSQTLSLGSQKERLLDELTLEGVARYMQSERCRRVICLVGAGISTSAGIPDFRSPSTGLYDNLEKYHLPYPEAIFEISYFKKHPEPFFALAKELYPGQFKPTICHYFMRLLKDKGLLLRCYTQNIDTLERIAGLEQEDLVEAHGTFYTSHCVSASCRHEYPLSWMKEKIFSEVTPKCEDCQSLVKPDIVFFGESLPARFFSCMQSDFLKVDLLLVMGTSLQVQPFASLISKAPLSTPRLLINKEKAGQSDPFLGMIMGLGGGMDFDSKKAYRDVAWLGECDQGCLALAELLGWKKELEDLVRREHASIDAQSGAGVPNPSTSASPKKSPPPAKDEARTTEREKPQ
As to the kind of experiment: Inhibition of SIRT2 (unknown origin) using IU179 as substrate incubated for 30 mins by Fluor de Lys sirtuin assay relative to control. More on the design: concentration or dose not given beside the values.

Assay [2] concerns T47D. As to the kind of experiment: Antiproliferative activity against human T47D cells assessed as decrease in cell numbers at 10 to 100 uM incubated for 24 hrs by PI staining based analysis relative to control. Format: functional. On the set-up: scale not given: the % may be the effect or the level left. The conditions noted are these: dose 10-100 µM.
In assay [3] the test system is T47D. Description: Antitumor activity against human T47D cell spheroids assessed as reduction in spheroid growth at 100 uM measured for >200 hrs by Image J analysis relative to control. In kind it is functional. On the set-up: scale not given: the % may be the effect or the level left.
In assay [4] the test system is T47D. As to the kind of experiment: Antitumor activity against human T47D cell spheroids assessed as reduction in spheroid growth at 10 to 100 uM measured for >200 hrs by Image J analysis relative to control. Format: functional. On the set-up: scale not given: the % may be the effect or the level left. The following applies: dose 10-100 µM.

The text below walks through data of ChEMBL document CHEMBL5614425, “Novel inhibitors of bromodomain and extra-terminal domain trigger cell death in breast cancer cell lines” (2024).

Each structure is given as a SMILES string. Some results are limits rather than exact numbers.

What is called inhibition is the relative decrease from the control value, in per cent. `CC1CCCCN1S(=O)(=O)c1ccc(C(=O)Nc2ccc(N3CCOCC3)c3ccncc23)cc1` (centres undefined) had an inhibition in assay [1] of 84%.

As for `NC(=O)C(NC(=O)CCCOc1ccc2c(c1)CCC(=O)N2)C(N)=O`, the inhibition in assay [1] is < 50%.

In the case of `Cc1cnc2c(c1)N(C(=O)COc1ccc(Cl)c(C)c1)CCC2`, the inhibition in assay [1] was < 50%.

For the compound `Cc1ccc(NC(=O)c2ccc(S(=O)(=O)N3CCCCCC3)cc2)c(C)c1`, the Activity is >40% in the assay with T47D [2], 100% with T47D [3] and ~20% in the assay with T47D [4]. The inhibition in assay [1] was < 50%.

`COc1cc(/C=N/c2ccc(N3N=C(C)CC3=O)cc2)ccc1O` registered an inhibition in assay [1] of 50%.

For `CCOc1ccc(C(C)NC(=O)COc2ccc3c(c2)CCC(=O)N3)cc1` (centres undefined), the inhibition in assay [1] was < 50%.
